The results in this text go back to patent US9023789B2, “Amylin analogs and pharmaceutical compositions thereof” (Novo Nordisk A/S, priority 2012, dated 2015).

Data set [1] in a line: ASSAY (IV) determination of solubility. It counts as physicochemical. Summed up: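 Dissolve polypeptide in water ([…] stock); combine 1:1 with each 100 mM buffer (glycylglycine pH 3.0/4.0/5.0; bistrispropane pH 6.0/6.5/7.0/7.5/8.0); hold 18 hours at room temperature; centrifuge; quantify polypeptide by UPLC.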
Data set [2] has as its target T1, human amylin receptor (membranes from Amylin 3(a)/CRE-luc cells) (Homo sapiens, UniProt O60896+P30988).
T1 construct: expressed in transfected cells
T1 sequence (P30988 25-474): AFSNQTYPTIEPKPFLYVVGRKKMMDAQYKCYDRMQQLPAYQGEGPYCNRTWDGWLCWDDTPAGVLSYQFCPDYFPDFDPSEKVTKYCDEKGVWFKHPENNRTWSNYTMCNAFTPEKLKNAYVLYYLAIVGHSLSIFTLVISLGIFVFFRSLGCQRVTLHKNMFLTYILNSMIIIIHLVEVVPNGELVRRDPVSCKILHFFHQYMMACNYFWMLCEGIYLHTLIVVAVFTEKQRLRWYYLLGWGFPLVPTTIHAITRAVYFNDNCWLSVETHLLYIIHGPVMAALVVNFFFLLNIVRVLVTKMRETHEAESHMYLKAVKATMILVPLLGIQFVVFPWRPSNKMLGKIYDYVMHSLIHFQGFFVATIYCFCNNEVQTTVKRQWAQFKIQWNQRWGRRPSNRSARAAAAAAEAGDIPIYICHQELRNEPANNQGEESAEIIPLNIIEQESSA
T1 sequence (O60896 24-148 partner): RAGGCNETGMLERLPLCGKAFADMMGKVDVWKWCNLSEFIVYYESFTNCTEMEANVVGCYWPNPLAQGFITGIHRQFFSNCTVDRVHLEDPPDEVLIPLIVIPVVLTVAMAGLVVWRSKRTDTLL
The data set is described as follows: ASSAY (V) binding to the human amylin receptor (SPA, 125I-rat amylin).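 Note: competition binding of cell membranes (35 ng/µL) mixed with SPA beads in 384-well plates at 40 µL total volume, read by scintillation counting.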

Data set [3] has as its target T2, rat calcitonin receptor (Rattus norvegicus, UniProt P32214).
T2 construct: expressed in transfected cells; host or cells: BHK tk'ts 13 (transient, FuGENE 6), membranes
T2 sequence (P32214 25-479 isoform P32214-2 limits assumed): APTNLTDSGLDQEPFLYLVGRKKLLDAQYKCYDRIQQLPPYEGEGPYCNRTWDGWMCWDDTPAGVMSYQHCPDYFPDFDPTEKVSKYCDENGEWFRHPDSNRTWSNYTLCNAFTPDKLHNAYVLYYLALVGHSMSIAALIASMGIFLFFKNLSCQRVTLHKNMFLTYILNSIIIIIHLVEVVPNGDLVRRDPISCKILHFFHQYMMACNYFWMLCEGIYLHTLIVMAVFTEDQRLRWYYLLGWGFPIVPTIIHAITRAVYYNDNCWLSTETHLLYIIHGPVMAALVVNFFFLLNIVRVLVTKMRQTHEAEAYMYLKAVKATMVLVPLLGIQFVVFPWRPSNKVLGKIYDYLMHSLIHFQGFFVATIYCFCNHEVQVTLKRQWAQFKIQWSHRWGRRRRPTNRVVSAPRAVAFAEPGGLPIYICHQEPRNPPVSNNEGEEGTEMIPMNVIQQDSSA
The data set is described as follows: ASSAY (VIII) binding to the rat calcitonin receptor. The following applies: Table 7, read-out: rCTR bind IC50. Summed up:
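Rat calcitonin receptor is expressed transiently in BHK tk′ts 13 cells cultured in DMEM with 10% FBS. Roughly two days (approximately 48 hours) post-transfection, cells are harvested for membrane preparation.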

Setting [4] is: bistrispropane buffer, pH 6.5, read-out: Solubility pH 6.5 Concentration.
[5] abbreviates: bistrispropane buffer, pH 7.5, read-out: Solubility pH 7.5 Concentration.
Where [6] appears, read: bistrispropane buffer, pH 6.0, read-out: Solubility pH 6.0 Concentration.
[7] abbreviates: bistrispropane buffer, pH 7.0, read-out: Solubility pH 7.0 Concentration.
The mark [8] stands for this setting: bistrispropane buffer, pH 8.0, read-out: Solubility pH 8.0 Concentration.
Setting [9] is: glycylglycine buffer, pH 3.0, read-out: Solubility pH 3.0 Concentration.
Where [10] appears, read: glycylglycine buffer, pH 4.0, read-out: Solubility pH 4.0 Concentration.
Setting [11] is: glycylglycine buffer, pH 5.0, read-out: Solubility pH 5.0 Concentration.
[12] abbreviates: Table 5, selectivity, hCTR bind IC50 / hAmylin-R bind IC50.
The mark [13] stands for this setting: Table 5a, selectivity, hCTR bind IC50 / hAmylin-R bind IC50.
[14] abbreviates: Table 5b, selectivity, hCTR bind IC50 / hAmylin-R bind IC50.
[15] abbreviates: Table 7, human binding selectivity, included for comparison.
[16] abbreviates: Table 7a (preferred compounds), human binding selectivity, included for comparison.
Where [17] appears, read: ratio of human calcitonin receptor binding IC50 to human amylin receptor binding IC50.

SMILES strings stand for the structures. ≈ marks a conversion by molar mass, not a printed value. Where two headings read alike, the source gives them in different places. Numbered stars: 1 amine (or outer) side, 2 acyl side, 3 side chain; on linkers, the order of the positions; unused ones are H or OH. Bridge positions count the residues as written; N and C are the ends. Side chains are listed from the residue outwards. Peptide text beside a SMILES is read from it. * marks the point of attachment. C20 diacid = O=C(O)CCCCCCCCCCCCCCCCCCC(=O)*; γGlu = O=C(O)[C@H](CCC(=O)[*:2])N[*:1]

`CC[C@H](C)[C@H](NC(=O)[C@H](C)NC(=O)CNC(=O)[C@H](Cc1ccccc1)NC(=O)[C@H](CC(N)=O)NC(=O)[C@@H]1CCCN1C(=O)[C@H](CO)NC(=O)[C@H](CO)NC(=O)[C@H](Cc1c[nH]cn1)NC(=O)[C@H](CCCNC(=N)N)NC(=O)[C@H](CC(C)C)NC(=O)[C@H](Cc1ccccc1)NC(=O)[C@H](CC(N)=O)NC(=O)[C@H](C)NC(=O)[C@H](CC(C)C)NC(=O)[C@H](CCCNC(=N)N)NC(=O)[C@H](CCC(N)=O)NC(=O)[C@@H](NC(=O)[C@H](C)NC(=O)[C@@H]1CSSC[C@H](NC(=O)[C@@H](N)CCCCNC(=O)CC[C@H](NC(=O)CC[C@H](NC(=O)CCCCCCCCCCCCCCCCCCC(=O)O)C(=O)O)C(=O)O)C(=O)N[C@@H](CC(N)=O)C(=O)N[C@@H]([C@@H](C)O)C(=O)N[C@@H](C)C(=O)N[C@@H]([C@@H](C)O)C(=O)N1)[C@@H](C)O)C(=O)N1CCC[C@H]1C(=O)N[C@@H](CO)C(=O)N[C@@H](CO)C(=O)N[C@H](C(=O)N1CCC[C@H]1C(=O)N[C@H](C(=O)NCC(=O)N1CCC[C@H]1C(=O)N[C@@H](CCCNC(=N)N)C(=O)N[C@H](C(=O)N[C@@H](Cc1ccc(O)cc1)C(N)=O)[C@@H](C)O)C(C)C)[C@@H](C)O` [Example 119] (H-K([γGlu-γGlu-C20 diacid])CNTATCATQRLANFLRHSSPNFGAIPSSTPVGPRTY-NH2; disulfide 2-7): the solubility at 18 h in data set [1] (setting [4]) is 174 µM (≈ 791 µg/mL); in data set [1] (setting [5]), 112 µM (≈ 509 µg/mL); in data set [1] (setting [6]), at least 200 µM; in data set [1] (setting [7]), 182 µM (≈ 827 µg/mL); in data set [1] (setting [8]), 32 µM (≈ 145 µg/mL); in data set [1] (setting [9]), 174 µM (≈ 791 µg/mL). Moreover, the solubility at 18 h in data set [1] (setting [10]) and in data set [1] (setting [11]) was at least 200 µM each time. The 50% inhibitory concentration (IC50) in data set [2] (Table 4, read-out: hAmylin-R bind IC50) was 0.88 nM; in data set [3] it was 52.4 nM. Moreover, the “Ratio hCT/hAmylin binding” value came out at 48.6 in data set [2] (setting [12]); 48.6 in data set [2] (setting [13]); 48.6 in data set [2] (setting [14]); 48.6 in data set [2] (Table 5c, selectivity, hCTR bind IC50 / hAmylin-R bind IC50); 48.6 in data set [2] (setting [15]); 48.6 in data set [2] (setting [16]). In data set [2] (setting [17]), the “Ratio hCT/hAmylin binding” value was found to be 48.6.

On to `CC[C@H](C)[C@H](NC(=O)[C@H](C)NC(=O)CNC(=O)[C@H](Cc1ccccc1)NC(=O)[C@H](CC(N)=O)NC(=O)[C@@H]1CCCN1C(=O)[C@H](CO)NC(=O)[C@H](CO)NC(=O)[C@H](Cc1c[nH]cn1)NC(=O)[C@H](CCCNC(=N)N)NC(=O)[C@H](CC(C)C)NC(=O)[C@H](Cc1ccccc1)NC(=O)[C@H](CCC(=O)O)NC(=O)[C@H](C)NC(=O)[C@H](CC(C)C)NC(=O)[C@H](CCCNC(=N)N)NC(=O)[C@H](CCC(N)=O)NC(=O)[C@@H](NC(=O)[C@H](C)NC(=O)[C@@H]1CSSC[C@H](NC(=O)[C@@H](N)CCCCNC(=O)CC[C@H](NC(=O)CCCCCCCCCCCCCCCCCCC(=O)O)C(=O)O)C(=O)N[C@@H](CC(N)=O)C(=O)N[C@@H]([C@@H](C)O)C(=O)N[C@@H](C)C(=O)N[C@@H]([C@@H](C)O)C(=O)N1)[C@@H](C)O)C(=O)N1CCC[C@H]1C(=O)N[C@@H](CO)C(=O)N[C@@H](CO)C(=O)N[C@H](C(=O)N[C@@H](CC(N)=O)C(=O)N[C@H](C(=O)NCC(=O)N[C@@H](CO)C(=O)N[C@@H](CC(N)=O)C(=O)N[C@H](C(=O)N1CCC[C@H]1C(N)=O)[C@@H](C)O)C(C)C)[C@@H](C)O` [Example 12] (H-K([γGlu-C20 diacid])CNTATCATQRLAEFLRHSSPNFGAIPSSTNVGSNTP-NH2; disulfide 2-7 (inferred); N-terminus assumed), for which the solubility at 18 h in data set [1] (setting [4]), in data set [1] (setting [5]), in data set [1] (setting [6]), in data set [1] (setting [7]), in data set [1] (setting [8]) and in data set [1] (setting [9]) was at least 200 µM throughout. Further, the solubility at 18 h in data set [1] (setting [10]) and in data set [1] (setting [11]) was at least 200 µM throughout. The “Ratio hCT/hAmylin binding” value in data set [2] (setting [12]) and in data set [2] (setting [15]) was 2.5 each time. Also, in data set [3], the IC50 turned out to be 2.71 nM.

With `CC[C@H](C)[C@H](NC(=O)[C@H](C)NC(=O)CNC(=O)[C@H](Cc1ccccc1)NC(=O)[C@H](CC(N)=O)NC(=O)[C@@H]1CCCN1C(=O)[C@H](CO)NC(=O)[C@H](CO)NC(=O)[C@H](Cc1c[nH]cn1)NC(=O)[C@H](CCCNC(=N)N)NC(=O)[C@H](CC(C)C)NC(=O)[C@H](Cc1ccccc1)NC(=O)[C@H](CCC(=O)O)NC(=O)[C@H](C)NC(=O)[C@H](CC(C)C)NC(=O)[C@H](CCCNC(=N)N)NC(=O)[C@H](CCC(N)=O)NC(=O)[C@@H](NC(=O)[C@H](C)NC(=O)[C@@H]1CSSC[C@H](NC(=O)[C@H](CCCCN)NC(=O)CC[C@H](NC(=O)CCCCCCCCCCCCCCCCCCC(=O)O)C(=O)O)C(=O)N[C@@H](CC(N)=O)C(=O)N[C@@H]([C@@H](C)O)C(=O)N[C@@H](C)C(=O)N[C@@H]([C@@H](C)O)C(=O)N1)[C@@H](C)O)C(=O)N1CCC[C@H]1C(=O)N[C@@H](CO)C(=O)N[C@@H](CO)C(=O)N[C@H](C(=O)N[C@@H](CC(N)=O)C(=O)N[C@H](C(=O)NCC(=O)N[C@@H](CO)C(=O)N[C@@H](CCCNC(=N)N)C(=O)N[C@H](C(=O)N[C@@H](Cc1ccc(O)cc1)C(N)=O)[C@@H](C)O)C(C)C)[C@@H](C)O` [Example 16] ({C20 diacid-γGlu}-KCNTATCATQRLAEFLRHSSPNFGAIPSSTNVGSRTY-NH2; disulfide 2-7), the solubility at 18 h in data set [1] (setting [4]), in data set [1] (setting [5]), in data set [1] (setting [6]), in data set [1] (setting [7]), in data set [1] (setting [8]) and in data set [1] (setting [9]) was at least 200 µM each time. The solubility at 18 h in data set [1] (setting [10]) and in data set [1] (setting [11]) was at least 200 µM in each case. Also, the “Ratio hCT/hAmylin binding” value in data set [2] (setting [12]), in data set [2] (setting [13]), in data set [2] (setting [14]), in data set [2] (setting [15]), in data set [2] (setting [16]) and in data set [2] (setting [17]) was 19.1 throughout. Besides, the IC50 in data set [3] amounted to 55.2 nM.

The term IC50 denotes the concentration that inhibits the measured activity by half.
